Measured values published in patent US12281301B2, “Sequencing-based proteomics” (THE BROAD INSTITUTE, INC., priority 2018, dated 2025).

System: THP-1 monocytes
Experiment: PATTERNS protein quantification in tagged THP-1 monocyte library
Format: cell-based, human
Settings: 6 hours treatment; out of 400 proteins represented; including FOS and EGR1
Method: RNP-mediated gene tagging in other cell lines. Non-confluent cells were trypsinized and/or washed and adjusted to a density 2E7/ml in warm OptiMEM. 125 μl of cell suspension were mixed with 125 μl OptiMEM containing 2.5 μg donor DNA, 2.5 μg Cas9 protein, and 250 ng sgRNA. The mix was incubated for 15 minutes at room temperature, and transferred to a 4 mm electroporation cuvette (BioRad). Cells were electroporated on a Gene Pulser Xcell Electroporation System (BioRad) using the following settings: 265V, 975 μF, and 720 Ohm. Cells were recovered immediately in 5 ml of pre-warmed growth medium. For library generation in THP-1 and SKMEL28 cells, the above protocol was scaled up 10-fold.
FACS sorting. […]
Analysis of Silent Barcode Sequencing data. Silent barcode bases were extracted from raw sequencing reads and were converted to a 28-bit integer value. Using a barcode lookup table, reads were collapsed into target loci, and a matrix of screening conditions vs. sorted bins was incremented for every successfully mapped read. Total read counts in every position of the matrix were normalized by the ratio of sorted cells (from control sort for simplification) divided by total reads with correctly mapped 10 bp reverse primer sequence, which helped to even out PCR saturation artifacts. […] All data were analyzed using a custom JavaScript-based analysis tool that is available online.

CCCCCCCCCCCCCC(=O)O[C@@H]1[C@@H](C)[C@@]2(O)[C@@H](C=C(CO)C[C@]3(O)C(=O)C(C)=C[C@@H]23)[C@@H]2C(C)(C)[C@]12OC(C)=O [PMA, Phorbol 12-Myristate 13-Acetate]
proteins whose levels were altered, by PATTERNS: four proteins
